Source: patent US20240101589A1, “INHIBITORS OF METTL3” (Strom Therapeutics Limited, priority 2020, published 2024)
pIC50: −log10 of the molar value.

Legend:
METTL3/14 = METTL3/14 (Homo sapiens (Human), UniProt Q86U44); assay: METTL3/14 methyltransferase assay (RapidFire mass spectrometry, RFMS); format: biochemical; conditions: 5 nM METTL3/14, 0.2 μM RNA substrate, 0.5 μM SAM, 60 minutes at room temperature
Procedure: The enzymatic assay was established to determine IC50 values for inhibition of RNA methyltransferase activity. The enzyme used was full-length his-tagged METTL3 co-expressed with full length FLAG-tagged METTL14 in a baculovirus expression system. Enzymatic reactions were performed at room temperature in 384-well plates using a final reaction volume of 20 μL containing 20 mM TrisCl pH 7.6, 1 mM DTT, 0.01% Tween-20. 5 nM final concentration of METTL3/14 was pre-incubated with various compound concentrations for 10 minutes, followed by addition of 0.2 μM final concentration synthetic RNA substrate (5′P-[…]-3′) and 0.5 μM final concentration S-adenosyl-methionine (SAM). The reaction was incubated for a further 60 minutes at room temperature, and then quenched by the addition of 40 μL 7.5% TCA with two internal product standards (D4-SAH and 13C10-SAH). After termination, plates were sealed, centrifuged and stored at 4° C. until analysis.
RNA methyltransferase activity was measured label free using the RapidFire™ mass spectrometry (RF/MS) platform. Stopped and stable assay plates were analyzed on the Agilent RF300 integrated autosampler/solid-phase extraction (SPE) system coupled to an ABSciex 4000 mass spectrometer for the generation of the product S-adenosyl homocysteine (SAH) and normalized to the ratio of signal of the two internal product standards, respectively. Solvent A was water containing 0.1% (v/v) TCA. Solvent B was acetonitrile/0.1% ammonium acetate (8:2, v/v). More specifically, plates were centrifuged at 4350 rpm for 10 min, samples were aspirated under vacuum for 600 ms, then loaded onto a C18 solid-phase extraction cartridge and washed for 3 s with solvent A at a flow rate of 1.5 mL/min. Retained product and internal standards were eluted with solvent B at a flow rate of 1 mL/min for 3 s and finally the cartridge was re-equilibrated with solvent A for 500 ms. The mass transition for the product (SAH) was 384.9/135.9 Da. Transitions of the two internal product standards (IS1: D4-SAH and IS2: 13C10-SAH) were 389.1/135.8 Da and 395.0/134.2 Da, respectively. Ratios of SAH/IS1 and SAH/IS2 were used for normalization of matrix effects. IC50 values were calculated based on dilution series of individual compounds. Potency of a compound was measured at varied inhibitor concentrations and normalized to control wells without RNA substrate and without inhibition (DMSO only).

KASUMI-1 cells = assay: Kasumi cell proliferation CTG; format: cell-based; conditions: treated for 120 hours, CellTiter-Glo
Procedure: Cell culture: KASUMI-1 cells (ACC20, Leibniz-Institut DSMZ Deutsche Sammlung von Mikroorganismen und Zellkulturen GmbH) were grown in RPMI 1640 (31870-025, Gibco) supplemented with 20% fetal bovine serum (F1524, Gibco), 1 mM sodium pyruvate (11360-039, Gibco) and 2 mM Glutamax (35050-038, Gibco) in a 5% CO2 humidified incubator at 37° C.
Cell treatment and cell growth assessment: KASUMI-1 cells were seeded in ultra-low attachment 384-well culture plate (MS-9384WZ, SBio) at a final concentration of 250 000 cells/ml (35 μL/well) and treated for 120 hours with compounds inhibiting the METTL3/14 activity (10 serial semi-log dilutions, 30 μM as top concentration). Upon treatment, Kasumi1 cells were incubated for 10 min at RT with the CellTiter-Glo reagent (G7571, Promega). Measurement of the luminescence signal was performed on a microplate reader (Ensight, PerkinElmer).

Caov-3 cells = assay: Caov3 cell proliferation CTG; format: cell-based; conditions: Homo sapiens, treated for 120 hours, CellTiter-Glo
Procedure: Cell treatment and cell growth assessment: 18 hours post-seeding in white 384-Viewplate (6007480, PerkinElmer) at 1500 cells/well, Caov3 cells were treated for 120 hours with compounds inhibiting the METTL3/14 activity (10 serial semi-log dilutions, 30 μM as top concentration). Upon treatment, Coav-3 cells were incubated for 10 min at RT with the CellTiter-Glo reagent (G7571, Promega). Measurement of the luminescence signal was performed on a microplate reader (Ensight, PerkinElmer).

Sequence of METTL3/14 (Q86U44 whole entry): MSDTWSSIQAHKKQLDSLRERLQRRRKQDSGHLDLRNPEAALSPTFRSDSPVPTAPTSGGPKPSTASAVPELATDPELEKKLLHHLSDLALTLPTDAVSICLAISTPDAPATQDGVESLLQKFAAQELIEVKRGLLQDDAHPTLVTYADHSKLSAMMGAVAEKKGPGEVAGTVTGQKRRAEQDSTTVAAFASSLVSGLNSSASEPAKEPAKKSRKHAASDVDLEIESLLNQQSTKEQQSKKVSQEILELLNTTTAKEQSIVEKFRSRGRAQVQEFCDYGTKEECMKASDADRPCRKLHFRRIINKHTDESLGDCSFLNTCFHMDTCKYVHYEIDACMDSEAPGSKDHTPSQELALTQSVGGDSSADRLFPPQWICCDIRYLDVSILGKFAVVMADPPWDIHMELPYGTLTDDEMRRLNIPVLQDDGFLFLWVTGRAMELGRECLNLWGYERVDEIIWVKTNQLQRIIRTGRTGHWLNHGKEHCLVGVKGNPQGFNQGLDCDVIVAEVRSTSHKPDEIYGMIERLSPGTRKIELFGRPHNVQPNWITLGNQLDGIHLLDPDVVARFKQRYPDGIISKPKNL
Sequence of METTL3/14 (Q9HCE5 whole entry partner): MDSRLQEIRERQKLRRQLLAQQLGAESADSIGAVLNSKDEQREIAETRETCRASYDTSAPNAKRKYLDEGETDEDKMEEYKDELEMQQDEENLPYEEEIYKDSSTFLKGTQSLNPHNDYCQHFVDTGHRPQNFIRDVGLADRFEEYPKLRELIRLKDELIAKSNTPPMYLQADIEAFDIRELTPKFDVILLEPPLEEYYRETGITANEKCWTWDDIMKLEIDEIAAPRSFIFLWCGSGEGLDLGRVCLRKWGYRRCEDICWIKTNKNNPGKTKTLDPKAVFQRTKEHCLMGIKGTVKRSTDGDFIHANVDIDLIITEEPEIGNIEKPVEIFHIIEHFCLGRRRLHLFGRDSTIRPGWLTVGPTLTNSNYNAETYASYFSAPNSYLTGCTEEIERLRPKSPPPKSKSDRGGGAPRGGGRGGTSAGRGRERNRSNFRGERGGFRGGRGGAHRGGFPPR

SMILES	pIC50 (METTL3/14)	pIC50 (KASUMI-1 cells; Homo sapiens, Kasumi 1, 120 h)	pIC50 (Caov-3 cells)	pIC50 (KASUMI-1 cells)
Nc1ncnc2c1c(Br)cn2[C@@H]1O[C@H](/C=C/CCCNCC2CCC2)[C@@H](O)[C@H]1O [Example 2, (2R,3R,4S,5R)-2-{4-amino-5-bromo-7H-pyrrolo[2,3-d]pyrimidin-7-yl}-5-[(1E)-5-[(cyclobutylmethyl)amino]pent-1-en-1-yl]oxolane-3,4-diol]	7.37	5.14	5.42	
Nc1ncnc2c1c(Br)cn2[C@@H]1O[C@H](/C=C/CCCNCc2ccccc2)[C@@H](O)[C@H]1O [Example 5, (2R,3R,4S,5R)-2-{4-amino-5-bromo-7H-pyrrolo[2,3-d]pyrimidin-7-yl}-5-[(1E)-5-(benzylamino)pent-1-en-1-yl]oxolane-3,4-diol]	6.71		6.48	6.44
Nc1ncnc2c1c(Br)cn2[C@@H]1O[C@H](/C=C/CCCNCC23CC(F)(C2)C3)[C@@H](O)[C@H]1O [Example 6]		5.80	6.40	
Nc1ncnc2c1c(Br)cn2[C@@H]1O[C@H](CC/C=C/CNCc2ccccc2)[C@@H](O)[C@H]1O [Example 9, (2R,3R,4S,5R)-2-(4-amino-5-bromo-7H-pyrrolo[2,3-d]pyrimidin-7-yl)-5-((E)-5-(benzylamino)pent-3-en-1-yl)tetrahydrofuran-3,4-diol]	6.91	5.34	5.24	
Nc1ncnc2c1c(Br)cn2[C@@H]1C[C@H](c2ccc(CNCC3CCC3)cc2)[C@@H](O)[C@H]1O [Example 10, (1R,2S,3R,5R)-3-(4-amino-5-bromo-7H-pyrrolo[2,3-d]pyrimidin-7-yl)-5-(4-(((cyclobutylmethyl)amino)methyl)phenyl)cyclopentane-1,2-diol]	6.82	5.36	5.19	
Nc1ncnc2c1c(Br)cn2[C@@H]1C[C@H](c2ccc3cc(CNCC45CC(F)(C4)C5)[nH]c3c2)[C@@H](O)[C@H]1O [Example 11, (1R,2S,3R,5R)-3-{4-amino-5-bromo-7H-pyrrolo[2,3-d]pyrimidin-7-yl}-5-(2-{[({3-fluorobicyclo[1.1.1]pentan-1-yl}methyl)amino]methyl}-1H-indol-6-yl)cyclopentane-1,2-diol]		6.02	6.60	
Nc1ncnc2c1c(Br)cn2[C@@H]1C[C@H](c2ccc(CCNCC34CC(F)(C3)C4)cc2)[C@@H](O)[C@H]1O [Example 12, (1R,2S,3R,5R)-3-{4-amino-5-bromo-7H-pyrrolo[2,3-d]pyrimidin-7-yl}-5-(4-{2-[({3-fluorobicyclo[1.1.1]pentan-1-yl}methyl)amino]ethyl}phenyl)cyclopentane-1,2-diol]	7.33	5.31	5.08	
Nc1ncnc2c1c(-c1cc[nH]n1)cn2[C@@H]1O[C@H](/C=C/CCCNCC23CC(F)(C2)C3)[C@@H](O)[C@H]1O [Example 20, (2R,3R,4S,5R)-2-[4-amino-5-(1H-pyrazol-3-yl)-7H-pyrrolo[2,3-d]pyrimidin-7-yl]-5-[(1E)-5-[({3-fluorobicyclo[1.1.1]pentan-1-yl}methyl)amino]pent-1-en-1-yl]oxolane-3,4-diol]	8.21		5.77	
Nc1ncnc2c1c(Br)cn2[C@@H]1O[C@H](/C=C/CCCN2CCC3(CCC3)C2)[C@@H](O)[C@H]1O [Example 21]	7.62	5.31	5.34	
Nc1ncnc2c1c(Br)cn2[C@H]1C[C@H](O)[C@@H](/C=C/CCCNCC23CC(F)(C2)C3)O1 [Example 22, (2R,3S,5R)-5-(4-amino-5-bromo-pyrrolo[2,3-d]pyrimidin-7-yl)-2-[(E)-5-[(3-fluoro-1-bicyclo[1.1.1]pentanyl)methylamino]pent-1-enyl]tetrahydrofuran-3-ol]	7.89	5.37	5.54	
